Laboratory results: patent US6664229B2, “Methods for treatment using novel ligands of the neuropeptide receptor HFGAN72” (SmithKline Beecham p.l.c., priority 1997, dated 2003)

System: rats
Assay: Cannula placement verification: dipsogenic response to icv angiotensin II
Type: in vivo, rat
Conditions: 100 ng i.c.v., 5 minute period post-AII, average
Method: An appropriate cannula placement is indicated by an intense dipsogenic response to 100 ng i.c.v. angiotensin II (AII). To induce a dipsogenic effect, access is required to the AII receptors located on circumventricular organs around the third ventricle. The time spent drinking for a 5 minute period post-AII is recorded. This tends to be an all-or-nothing effect, but rats spend on average 150 s drinking. […] This may be verified by injection of cresyl violet and sectioning of the brain.

Which time spent drinking does the source give for “angiotensin II (DRVYIHPF; Angiotensin-2; UniProt P01019 25-32, looked up)” here?
Its time spent drinking is about 150 s.
